Laboratory results as given in patent US20170053081A1, “METHODS AND MATERIALS FOR CHARACTERIZING INTESTINAL BARRIER FUNCTION” (THE ARIZONA BOARD OF REGENTS ON BEHALF OF THE UNIVERSITY OF …, priority 2014, published 2017).

Columns and labels:
[1] = test system: plasma FABP2; test: Serial plasma FABP2 (ELISA) in children after cardiopulmonary bypass for CHD, by treatment factor; settings: children after CPB; for Association of infusion with elevation in plasma FABP2 over time: vasoactive infusions, any dose, p<0.01
Description: (§1) Inclusion criteria were age greater than 37 weeks corrected gestational age and a diagnosis of CHD requiring surgical repair or palliation with the use of CPB. Exclusion criteria were known pre-existing gastrointestinal dysfunction, immune dysfunction, active intracranial bleeding, and anuric renal failure. All operations were performed by two surgeons. CPB and anesthetic regimens were per usual care.
Blood samples for measurement of plasma FABP2, claudin 3, and citrulline were collected from indwelling intravascular catheters pre-operatively after induction of general anesthesia, but prior to CPB, and at 6, 12, 24, 48, and ≧120 hours post-operatively. Final samples at ≧120 hours were collected between 120 and 168 hours post-operatively to evaluate the return to baseline values. Control samples were obtained intra-operatively from the CPB circuits prior to connection to the patient. […]
Clinical data included candidate factors likely to alter intestinal barrier function. […] Vasoactive-inotrope score (VIS) was determined at time of sample collection and was previously validated (see, e.g., Gaies, et al., Pediatric critical care medicine: a journal of the Society of Critical Care Medicine and the World Federation of Pediatric Intensive and Critical Care Societies 2010; 11:234-8).
Plasma concentrations of human FABP2 were evaluated by ELISA according to the manufacturer's protocol (Standards range: 10 000 pg/ml to 156.25 pg/ml) (R&D Systems, Minneapolis, Minn.). Claudin 3 concentration was evaluated by ELISA in plasma from patients according to manufacturer's instruction (standard range from 20 ng/ml to 0.312 ng/ml) (Uscn life science Inc, Wuhan, China).
Data were analyzed using STATA SE/11 software. […] As citrulline values were normally distributed, the effect of binary variables on citrulline were evaluated with a Student's t-test. […] The effect continuous and categorical variables over time on repeated log-transformed plasma FABP2, log-transformed claudin 3, and citrulline was evaluated with multi-level mixed-effects linear regression. […]

[2] = test system: intestinal barrier function; test: Intestinal barrier function biomarker panel (plasma FABP2, claudin 3, citrulline) in children after cardiopulmonary bypass; settings: for Association with changes in post-operative FABP2, claudin3, or citrulline: caudal or spinal, post-operative pain management, p>0.05
Description: A panel of plasma biomarkers was used to reflect intestinal epithelial cellular and paracellular structure (FABP2 and claudin 3), as well as cellular and paracellular function (citrulline and DSPT). In particular, twenty children aged newborn to 18 years undergoing repair or palliation of congenital heart disease with CPB were examined. Plasma FABP2, claudin 3, and citrulline were measured after induction of general anesthesia, and at 6, 12, 24, 48, and 120 hours post-operatively.
as §1
Blood samples for measurement of plasma FABP2, claudin 3, and citrulline were collected from indwelling intravascular catheters pre-operatively after induction of general anesthesia, but prior to CPB, and at 6, 12, 24, 48, and ≧120 hours post-operatively. […]
Plasma concentrations of human FABP2 were evaluated by ELISA according to the manufacturer's protocol (Standards range: 10 000 pg/ml to 156.25 pg/ml) (R&D Systems, Minneapolis, Minn.). Claudin 3 concentration was evaluated by ELISA in plasma from patients according to manufacturer's instruction (standard range from 20 ng/ml to 0.312 ng/ml) (Uscn life science Inc, Wuhan, China). […]
Samples were separated on Phenomenex Luna HILIC 200A SB-C18, 3 μm, 150×2.00 mm column (Torrance, Calif.) using Paradigm MS4B-multi-dimensional separations module (Michrom BioResources, Inc., Auburn, Calif.). […] Full injection loop (20 μl) was used to introduce 2 μl sample diluted with 18 μl of solvent B. AB SCIEX API 3000 triple-quadrupole mass spectrometer (Applied Biosystems, Foster City, Calif.) controlled by Analyst 1.5.1 in-line with the HPLC was used for citrulline detection and quantitative analysis.

SMILES	Association with elevated plasma FABP2 ([1]; p=0.03)	Association of infusion with elevation in plasma FABP2 over time [1]	Association with changes in post-operative FABP2, claudin3, or citrulline [2]	Risk for intestinal barrier dysfunction ([2]; children undergoing CPB, post-operative use to maintain mean arterial blood pressure)
CNC[C@H](O)c1ccc(O)c(O)c1 [epinephrine]	associated with elevated plasma FABP2	associated with		
CCCCN1CCCCC1C(=O)Nc1c(C)cccc1C (stereo not drawn) [bupivicaine]			not associated with changes	
CN1CC[C@]23c4c5ccc(O)c4O[C@H]2[C@@H](O)C=C[C@H]3[C@H]1C5 [morphine]			not associated with changes	
NC(=O)CC[C@@H]1NC(=O)[C@H](Cc2ccccc2)NC(=O)[C@H](Cc2ccc(O)cc2)NC(=O)[C@@H](N)CSSC[C@@H](C(=O)N2CCC[C@H]2C(=O)N[C@@H](CCCN=C(N)N)C(=O)NCC(N)=O)NC(=O)[C@H](CC(N)=O)NC1=O [vasopressin]		associated with		increase the risk for intestinal barrier dysfunction
